Data from ChEMBL document CHEMBL5131394, “Structure-activity and mechanistic studies of non-peptidic inhibitors of the PLK1 polo box domain identified through REPLACE” (Eur J Med Chem, 2022).

Columns and labels:
PC-3 [1] = experiment: Antiproliferative activity against human PC-3 cells assessed as cell viability measured after 72 hrs by MTT assay; assay type: functional, cell-based; conditions: PC-3, 72 h
[2] = Antiproliferative activity against human RPE cells expressing wild-type PLK1 assessed as reduction in cell viability measured after 72 hrs by MTT assay; assay type: functional, cell-based
[3] = Antiproliferative activity against human HCT116-p53-null cells assessed as cell viability measured after 72 hrs by MTT assay; assay type: functional, cell-based
[4] = target: T1, Serine/threonine-protein kinase PLK1 (Homo sapiens, UniProt P53350); experiment: Binding affinity to recombinant human N-terminal GST-tagged PLK1-PBD (367 to 603 end residue) expressed in Escherichia coli using MAGPMQS[pT]PLNGAKK as substrate incubated for 45 mins by fluorescence polarization assay
T1 sequence (P53350 whole entry): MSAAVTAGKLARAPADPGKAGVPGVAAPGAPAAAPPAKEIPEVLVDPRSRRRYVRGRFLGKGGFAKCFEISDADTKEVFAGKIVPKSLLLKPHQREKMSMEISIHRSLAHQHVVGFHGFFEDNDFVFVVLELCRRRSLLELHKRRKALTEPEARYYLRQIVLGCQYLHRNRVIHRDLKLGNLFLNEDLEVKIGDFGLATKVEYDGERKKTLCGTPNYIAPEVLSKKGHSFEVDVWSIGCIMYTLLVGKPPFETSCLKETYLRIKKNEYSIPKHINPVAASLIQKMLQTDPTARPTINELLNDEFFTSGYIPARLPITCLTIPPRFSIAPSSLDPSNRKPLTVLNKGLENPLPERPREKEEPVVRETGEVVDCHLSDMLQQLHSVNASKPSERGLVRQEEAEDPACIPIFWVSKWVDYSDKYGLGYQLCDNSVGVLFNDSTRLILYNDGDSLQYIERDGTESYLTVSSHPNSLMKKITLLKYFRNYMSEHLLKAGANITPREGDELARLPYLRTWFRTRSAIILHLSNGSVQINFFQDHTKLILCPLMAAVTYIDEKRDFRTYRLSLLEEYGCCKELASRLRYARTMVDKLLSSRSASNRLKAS

[5] = Antiproliferative activity against human RPE cells expressing PLK1 C67V mutant assessed as reduction in cell viability measured after 72 hrs by MTT assay; assay type: functional, cell-based
A549 = experiment: Antiproliferative activity against human A549 cells assessed as cell viability measured after 72 hrs by MTT assay; assay type: functional, cell-based; conditions: A549, 72 h
[6] = Antiproliferative activity against human p53HCT116 cells assessed as cell viability measured after 72 hrs by MTT assay; assay type: functional, cell-based; conditions: p53HCT116, 72 h
HeLa = experiment: Antiproliferative activity against human HeLa cells assessed as cell viability measured after 72 hrs by MTT assay; assay type: functional, cell-based
PC-3 [7] = experiment: Induction of mitotic arrest in human PC-3 cells assessed as accumulation of cells at G2/M phase; assay type: functional
[8] = target: T1, Serine/threonine-protein kinase PLK1; experiment: Binding affinity to full length PLK1 in human PC-3 cells assessed as stabilized protein incubated for 2 hrs followed by aggregation temperature at 56.2 degC by […] analysis; assay type: cell-based

Compound | IC50 [4] | further results
CCCCCCCCCCCCc1ccc(C(=O)Nc2ccccc2C(=O)O)cc1 |  | IC50 (PC-3 [1]): 14 µM
CCCCCCCCc1ccc(C(=O)Nc2cccc(F)c2C(=O)O)cc1 | 11.1 µM | IC50 [2]: 8.79 µM; IC50 [3]: 10 µM; IC50 (PC-3 [1]): 11.6 µM; IC50 [5]: 9.1 µM; IC50 (A549): 2.9 µM
CCCCCCCCc1ccc(CNc2cccc(F)c2C(=O)O)cc1 | 18.8 µM | 
CCCCCCCCc1ccc(C(=O)Nc2cc(C)ccc2C(=O)O)cc1 | 4 µM | IC50 [3]: 11.4 µM; IC50 [6]: 24.2 µM; IC50 (PC-3 [1]): 18.8 µM; IC50 (A549): 3.5 µM
CCCCc1ccc(C(=O)Nc2ccccc2C(=O)O)cc1 | > 600 µM | 
CCCCCCCCc1ccc(C(=O)Nc2cccc(OP(=O)(O)O)c2)cc1 | 98.3 µM | 
CCCCCCCCc1ccc(C(=O)Nc2ccccc2C(=O)OCC)cc1 | > 600 µM | IC50 (PC-3 [1]): > 100 µM; IC50 (HeLa): > 100 µM
CCCCCCCCc1ccc(C(=O)Nc2cccc([N+](=O)[O-])c2C(=O)O)cc1 | 6.1 µM | 
CCCCCCCCc1ccc(C(=O)Nc2ccccc2S(N)(=O)=O)cc1 | 259 µM | 
CCCCCCCCc1ccc(C(=O)Nc2cccc(Cl)c2C(=O)O)cc1 | 25.3 µM | 
CCCCCCCCc1ccc(C(=O)Nc2cccc(O)c2C(=O)O)cc1 | 7.9 µM | 
CCCCCCCCc1ccc(C(=O)Nc2ccc(OC)cc2C(=O)O)cc1 | 5.9 µM | IC50 (HeLa): 8 µM
CC[C@@H]1C(=O)N(C)c2cnc(Nc3ccc(C(=O)NC4CCN(C)CC4)cc3OC)nc2N1C1CCCC1 [BI-2536] |  | Activity (PC-3 [7]): >75%
CCCCCCCCc1ccc(C(=O)Nc2cccc(C(F)(F)F)c2C(=O)O)cc1 | 29.4 µM | 
CCCCCCCCc1ccc(CNc2cccc(OP(=O)(O)O)c2)cc1 | > 600 µM | 
CCCCCCCCc1ccc(C(=O)Nc2ccccc2B(O)O)cc1 | > 600 µM | 
CCCCCCCCc1ccc(C(=O)Nc2ccccc2[N+](=O)[O-])cc1 | > 600 µM | 
CCCCCc1ccc(C(=O)Nc2ccccc2C(=O)O)cc1 | 224 µM | 
CCCCCCCCc1ccc(CCNc2ccccc2C(=O)O)cc1 | 118 µM | 
CCCCCCCCc1ccc(CNc2cccc(CC)c2)cc1 | > 600 µM | 
CCCCCCCCc1ccc(C(=O)Nc2cc(F)cc(F)c2C(=O)O)cc1 | 30.6 µM | 
CCCCCCCCc1ccc(C(=O)Nc2c(O)cccc2C(=O)O)cc1 | 12 µM | 
CCCCCCCCc1ccc(C(=O)Nc2cccc(OC)c2C(=O)O)cc1 | 29.6 µM | 
CCCCCCCCc1ccc(CNc2ccc(C)cc2C(=O)O)cc1 | > 600 µM | 
CCCCCCCCc1ccc(C(=O)Nc2ccccc2C(=O)O)cc1 |  | IC50 [2]: 33 µM; IC50 [3]: 8 µM; IC50 [5]: 25.9 µM; IC50 (A549): 2.8 µM
CCCCCCCCc1ccc(CNc2ccccc2C(=O)O)cc1 | 9.8 µM | 
CCCCCCCCc1ccc(CNc2cc(C)ccc2C(=O)O)cc1 | 21.7 µM | 
CCCCCCCCc1ccc(C(=O)Nc2ccc(C)cc2C(=O)O)cc1 | 2.2 µM | IC50 [2]: 13.4 µM; IC50 [3]: 10 µM; IC50 [6]: 17.4 µM; IC50 (PC-3 [1]): 16.3 µM; EC50 [8]: 0.82 µM; IC50 [5]: 12.6 µM; IC50 (A549): 5.1 µM
